# Data as given in PMC12040169 (PLOS Biology, 2025).
# Test: in vitro
# Settings: human, hela cells, % viability
Compound,"viability at 28.5 h, 10 µM","viability at 28.5 h, 10 µM (bulk resorufin, single well)"
CCN(CC(=O)NCc1cccnc1)S(=O)(=O)c1ccc(F)cc1 [CBK269503],85.3%,
Cc1[nH]c2ccccc2c1C(=O)CSc1nnc(N)s1 [CBK266328],102%,
COc1ccc(C(=O)Nc2nc3ccc(S(C)(=O)=O)cc3s2)cc1 [CBK287338],94.3%,
Cc1cccc(NC(=O)NCCCn2c(-c3ccncc3)nc3cccnc32)c1 [CBK288580],97.5%,
COc1cc(NC(=O)c2c(C)[nH]c(=O)[nH]c2=S)cc(C(F)(F)F)c1 [CBK115495],92.3%,
Nc1ncncc1-c1ccc(Cl)cc1 [CBK012407],90.9%,
COc1cc2c(cc1OC)CN(CC1CCCCC1)CC2 [CBK138321],101%,
Cc1ccc(NC(=O)Cn2cnc3c(cnn3-c3ccc(C)cc3)c2=O)cc1 [CBK287534],104%,
O=C(O)C1CSC(c2cc3ccccc3o2)N1 (stereo not drawn) [CBK019502],93.7%,
CC(=O)NCc1ccc(-c2ccc(C(=O)NCc3ccc4[nH]c(C)c(C)c4c3)c(C)n2)cc1 [CBK285888],72.1%,
O=C(CNC(=O)c1ccccc1)OCC(=O)c1ccc(Cl)c(Cl)c1 [CBK261611],93.9%,
O=C(NCc1ccncc1)C1CCCN(c2nc3c(-c4ccccc4)csc3c(=O)[nH]2)C1 (stereo not drawn) [CBK215493],107%,
O=C(NC1CCCCC1)N1C[C@@H]2C[C@H](C1)c1ccc(-c3cccnc3)c(=O)n1C2 [CBK289183],93.6%,
O=C([C@@H]1C[C@@H](O)[C@H](O)[C@@H]2NC(=S)N(c3ccc4c(c3)OCO4)[C@@H]21)N1CCCCC1 [CBK288945],87.3%,
COc1ccc(F)c(CNCC2CCN(C(=O)OC(C)(C)C)CC2)c1 [CBK056716],95.9%,
CCn1cc(C(=O)N2CCn3cc(C(F)(F)F)nc3C2)c(C)n1 [CBK283916],93.8%,
CC(=O)Nc1cc(C(=O)NCc2ccc(F)cc2)ccc1Sc1ccc(Cl)cc1 [CBK294468],96.2%,
Cc1noc(C)c1CCC(=O)N1CC[C@H]2NC(=O)c3ccccc3OCCCCC[C@H]2C1 [CBK292036],96.5%,
O=C(c1cccc(F)c1)N1CCN(Cc2ccccn2)CC1 [CBK263023],88.5%,
CCN1CCN(C(=O)Cc2cn(C)c3ccccc23)CC1 [CBK200254],96.9%,
Cc1nc(N)nc(NCC(O)CN(C)C)c1Cl (stereo not drawn) [CBK306963],81.7%,
O=C(Cn1ncc2cccn2c1=O)c1ccc(F)cc1 [CBK283627],82.7%,

Compound,"viability at 28.5 h, 10 µM","viability at 28.5 h, 10 µM (bulk resorufin, single well)"
CCOc1cccc2sc(Nc3nc4ccc(NC(C)=O)cc4s3)nc12 [CBK287474],90.8%,
CC(=O)c1c(C)oc(C)c1C(C)=O [CBK012535],88.2%,
CSc1nsc(SCC(=O)Nc2ccccc2C#N)n1 [CBK269826],95.1%,
Cn1c(=O)c2c(nc(NCCO)n2CCc2ccccc2)n(C)c1=O [CBK267497],87.8%,
Fc1ccc(-c2cc(Nc3ccccc3)ncn2)cc1F [CBK090913],105%,
Nc1ncc(-c2cc(C(F)(F)F)cc(C(F)(F)F)c2)nc1-c1ccc(O)cc1 [CBK122503],98.3%,
N#CCCN(C(=O)Nc1ccc(Cl)cc1)C1CCCCC1 [CBK156365],89.1%,
CCc1c(C)sc2ncn(C3CCNCC3)c(=O)c12 [CBK282972],81.2%,
Cc1nc(CC(=O)Nc2ccc(N3CCOCC3)cc2)cs1 [CBK304339],95.8%,
COc1ccc(-c2ccccc2NC(=O)c2cc(-n3cccn3)ccc2Cl)cc1 [CBK285634],91.3%,
COc1ccc(CCNC(=O)CC2Sc3ccc(C(F)(F)F)cc3NC2=O)cc1OC (stereo not drawn) [CBK265341],91.7%,
c1cnn(C2CCN(Cc3ccc(Oc4cnccn4)cc3)CC2)c1 [CBK306417],85.7%,
CCOc1ccccc1C(=O)N1CCC(Cc2ccccc2-c2ccccc2)(C(N)=O)CC1 [CBK285910],89.6%,
Cc1cc(I)cnc1NC(=O)CSc1ccc(Cl)cc1 [CBK266438],94.3%,
O=C1NC(=O)C(=Cc2ccc(-c3ccc([N+](=O)[O-])cc3)o2)C(=O)N1 [CBK229904],,114%
O=C(O)c1ccc(CNC(=O)c2ccc3c(c2)C(=O)N(CC2CCCO2)C3=O)cc1 (stereo not drawn) [CBK264256],98.4%,
O=C(NCCCN1CCOCC1)c1cc(Cl)ccc1[N+](=O)[O-] [CBK265470],108%,
Cc1ccc(-c2nnc(SCC(=O)Nc3ccc(N4CCOCC4)cc3)n2C)cc1 [CBK270247],111%,
CCC(C)c1nnc(C2(c3ccc(Br)cc3)CCOCC2)o1 (stereo not drawn) [CBK306229],99.7%,
O=C1COc2ccccc2C/C=C/C[C@H]2CN(C(=O)c3noc4c3CCCC4)CC[C@H]2N1 [CBK292099],116%,
Cc1nc(C)c(CC(=O)N2CCC(Oc3cccc(F)c3)CC2)s1 [CBK282223],97.4%,
O=C(O)C1(Cc2ccc(-c3ccccc3)cc2)CCNC1 (stereo not drawn) [CBK281687],91.2%,

Compound,"viability at 28.5 h, 10 µM","viability at 28.5 h, 10 µM (bulk resorufin, single well)"
O=C(c1ccccc1)N1C[C@@H](c2ccsc2)[C@@H]2CN(Cc3ccccc3F)CC[C@@H]21 [CBK285612],116%,
COc1cccc(/C=C2/NC(=O)N(c3cccc(Cl)c3)C2=O)c1OCc1cccc(C(=O)O)c1 [CBK265626],109%,
O=S(=O)(NC1CCN(Cc2ccccc2)CC1)c1cccc2nonc12 [CBK062030],94.6%,
COc1cc(C(=O)Nc2ncccc2OCCCC#N)ccc1C [CBK304568],85.7%,
Fc1ccc(N(CCCN2CCN(c3ncccn3)CC2)c2ccc(F)cc2)cc1 [CBK025127C],98.8%,
CC(NC(=O)N1CCN(CCc2ccccc2)CC1)c1ccccc1 (stereo not drawn) [CBK158935],85.1%,
Cc1cc(-c2cn3cc(C(=O)N(C)CC(C)O)nc3c(=O)n2C)c(C)o1 (stereo not drawn) [CBK307154],88%,
CC(=O)Nc1ccc(S(=O)(=O)N2CCN(c3ccc(C(F)(F)F)cc3[N+](=O)[O-])CC2)cc1 [CBK264293],93.9%,
CCc1noc(C)c1C(=O)NCC1CCCCN1CC (stereo not drawn) [CBK282201],97.3%,
C/C(=N/NC(=O)C[N+](C)(C)C)c1nn(-c2ccc(Cl)cc2)nc1C [CBK008258C],100%,
Cc1ccc(Cn2cnc3c(cnn3-c3ccc(C)c(C)c3)c2=O)cc1 [CBK287540],108%,
CN(C)C1Cc2cccc3nc(S(C)(=O)=O)n(c23)C1 (stereo not drawn) [CBK007942],94.8%,
CCCCN(C)c1c(CC)nc2ccc(C(=O)Nc3ccc(OC)c(OC)c3)cn12 [CBK145445],95.5%,
O=C(NCC1COc2ccccc2O1)c1cc(-c2ccc(Cl)cc2)cnc1N1CCOCC1 (stereo not drawn) [CBK076286],94.9%,
CN(C)c1ccc(C(=O)N2CCN3C(=O)[C@H](Cc4ccc(F)cc4)NC(=O)[C@H]3C2)cc1 [CBK289601],109%,
Nc1ncc(-c2cccc(O)c2)nc1N1CCOCC1 [CBK063376],100%,
CC(C)(C)OC(=O)N1CCN(c2cc(NCc3ccccc3)ncn2)CC1 [CBK000137],94.7%,
COc1cc(/C=C2/NC(=O)N(c3ccccc3)C2=O)ccc1OCc1ccc(C(=O)O)cc1 [CBK265139],84.6%,
COc1ccc(Cn2nc(NS(=O)(=O)c3cn(C)cn3)c3ccccc32)cc1 [CBK048143],87.7%,
CN(CC(=O)NNC(=O)c1cccnc1)S(=O)(=O)c1cc(Cl)ccc1Cl [CBK267388],92.2%,
COc1ccc(C)cc1NC(=O)N1CCC2(CC1)CC(=O)c1ccc(C)cc1O2 [CBK166520],91.4%,
CC(c1ccccc1)N1CCn2c(nc3cc(NC(=O)COc4ccccc4)ccc32)C1 (stereo not drawn) [CBK268033],105%,

Compound,"viability at 28.5 h, 10 µM","viability at 28.5 h, 10 µM (bulk resorufin, single well)"
COc1ccc(-c2n[nH]c(=S)n2CCC(=O)NCc2ccc(CN3CCCCC3)cc2)cc1 [CBK297918],94.5%,
CCOC(=O)C1CCN(C(=O)c2ccc(OC)cc2)CC1 [CBK074220],99.2%,
COc1ccc(C)cc1NS(=O)(=O)CC(C)C [CBK111346],93.8%,
COc1cnn(-c2ccccc2)c(=O)c1N(C)C [CBK020317],94%,
CC(C)CSc1nc(O)cc(=O)n1Cc1ccccc1 [CBK291170],114%,
COCCCNC(=O)c1cnn2c(C)c(Cc3ccccc3)c(C)nc12 [CBK162216],94.6%,
COc1ccc(C(C)C)cc1-c1nccnc1NCc1ccc2c(c1)OCO2 [CBK036683],81%,
COc1cccc(N2CCN(CC(CC(=O)Nc3ccccc3)C(=O)O)CC2)c1 (stereo not drawn) [CBK286813],89.8%,
N=C(N)NS(=O)(=O)c1ccc(N/C=C\C(=O)c2ccc3ccccc3c2)cc1 [CBK263374],98.6%,
Cc1nn(Cc2cccc(Oc3ccccc3)c2)c(C)c1NC(=O)c1nc2ncccn2n1 [CBK267632],89%,
CS(=O)(=O)N[C@H]1C[C@H]2C(=O)Nc3ccc(-c4cccs4)cc3C(=O)N2C1 [CBK289359],95.7%,
COCCN(Cc1cnn(C)c1)C(=O)Cc1ccc(Cl)cc1 [CBK307407],97%,
CC(C)c1ccc(NC(=O)NC(=O)C2CCN(CCOc3ccc4ccccc4c3)CC2)c(C(C)C)c1 [CBK034883],96%,
Nc1nc(-c2ccc3c(c2)CCC(=O)N3)cs1 [CBK086133],80.8%,
CCCOc1ccc(O)cc1 [CBK122802],97.8%,
CC(Cn1cncn1)C(=O)N1CCC(CCc2ccccc2F)CC1 (stereo not drawn) [CBK281529],96%,
CCN1CCCC1CNC(=O)c1ccc(-c2ccc(OC)cc2)nc1N(C)C(C)=O (stereo not drawn) [CBK076491],98.3%,
Cc1ccc(NC(=S)N2CCCC2C(=O)O)c(C)c1 (stereo not drawn) [CBK007148],79.3%,
COc1ccc([C@@]23CC[C@@H](NC(=O)Nc4nc(Cl)cc(Cl)n4)C[C@@H]2N(C)CC3)cc1OC [CBK067083T],96.3%,
COc1ccc(S(=O)(=O)n2ccn(-c3ccc(Oc4ccccc4)cc3)c2=O)cc1OC [CBK106649],86.9%,
CC1(C)COC(=O)N1C1CCN(C(=O)CCS/C=C\c2ccccc2)CC1 [CBK045134],95.3%,
